From the NIST ThermoML archive (doi:10.1016/j.fluid.2005.03.023)
Numbers after ± are expanded uncertainties.

Experiments:
[1] = Crystal; DTA
[2] = Molar enthalpy of transition or fusion; details: Crystal; DSC

Normal melting temperature [1]	Molar enthalpy of transition or fusion [2]	Compound
93.6 ± 0.5 °C	5.58 ± 0.165 kcal/mol	CC(=O)c1cccc(O)c1 [1-(3-hydroxyphenyl)ethanone]
108.2 ± 0.5 °C	4.07 ± 0.127 kcal/mol	CC(=O)c1ccc(O)cc1 [4'-hydroxyacetophenone]
105.1 ± 0.5 °C	4.67 ± 0.141 kcal/mol	CC(=O)c1ccc(N)cc1 [4-acetylaniline]
113.8 ± 0.5 °C	5.12 ± 0.153 kcal/mol	CC(=O)Nc1ccccc1 [N-phenylethanamide]
